Assay results from ChEMBL document CHEMBL5584296, “Discovery of Novel Pyrimidine-Based Derivatives as Nav1.2 Inhibitors with Efficacy in Mouse Models of Epilepsy” (J Med Chem, 2024).

Experiments:
[1] = Neurotoxicity in male ICR mouse assessed as motor impairment at 30 mg/kg, ip administered for 30 mins by rotarod test relative to control; assay type: toxicity, organism-based; conditions: in vivo, 0.5 h
[2] = molecular target: T1, Sodium channel protein type 2 subunit alpha (Homo sapiens, UniProt Q99250); test: Inhibition of human Nav1.2 expressed in HEK293 cells assessed as test to control ratio at 10 uM measured after 5 mins by whole cell voltage clamp electrophysiological analysis; assay type: cell-based
Target sequence in this assay (Q99250 whole entry, looked up): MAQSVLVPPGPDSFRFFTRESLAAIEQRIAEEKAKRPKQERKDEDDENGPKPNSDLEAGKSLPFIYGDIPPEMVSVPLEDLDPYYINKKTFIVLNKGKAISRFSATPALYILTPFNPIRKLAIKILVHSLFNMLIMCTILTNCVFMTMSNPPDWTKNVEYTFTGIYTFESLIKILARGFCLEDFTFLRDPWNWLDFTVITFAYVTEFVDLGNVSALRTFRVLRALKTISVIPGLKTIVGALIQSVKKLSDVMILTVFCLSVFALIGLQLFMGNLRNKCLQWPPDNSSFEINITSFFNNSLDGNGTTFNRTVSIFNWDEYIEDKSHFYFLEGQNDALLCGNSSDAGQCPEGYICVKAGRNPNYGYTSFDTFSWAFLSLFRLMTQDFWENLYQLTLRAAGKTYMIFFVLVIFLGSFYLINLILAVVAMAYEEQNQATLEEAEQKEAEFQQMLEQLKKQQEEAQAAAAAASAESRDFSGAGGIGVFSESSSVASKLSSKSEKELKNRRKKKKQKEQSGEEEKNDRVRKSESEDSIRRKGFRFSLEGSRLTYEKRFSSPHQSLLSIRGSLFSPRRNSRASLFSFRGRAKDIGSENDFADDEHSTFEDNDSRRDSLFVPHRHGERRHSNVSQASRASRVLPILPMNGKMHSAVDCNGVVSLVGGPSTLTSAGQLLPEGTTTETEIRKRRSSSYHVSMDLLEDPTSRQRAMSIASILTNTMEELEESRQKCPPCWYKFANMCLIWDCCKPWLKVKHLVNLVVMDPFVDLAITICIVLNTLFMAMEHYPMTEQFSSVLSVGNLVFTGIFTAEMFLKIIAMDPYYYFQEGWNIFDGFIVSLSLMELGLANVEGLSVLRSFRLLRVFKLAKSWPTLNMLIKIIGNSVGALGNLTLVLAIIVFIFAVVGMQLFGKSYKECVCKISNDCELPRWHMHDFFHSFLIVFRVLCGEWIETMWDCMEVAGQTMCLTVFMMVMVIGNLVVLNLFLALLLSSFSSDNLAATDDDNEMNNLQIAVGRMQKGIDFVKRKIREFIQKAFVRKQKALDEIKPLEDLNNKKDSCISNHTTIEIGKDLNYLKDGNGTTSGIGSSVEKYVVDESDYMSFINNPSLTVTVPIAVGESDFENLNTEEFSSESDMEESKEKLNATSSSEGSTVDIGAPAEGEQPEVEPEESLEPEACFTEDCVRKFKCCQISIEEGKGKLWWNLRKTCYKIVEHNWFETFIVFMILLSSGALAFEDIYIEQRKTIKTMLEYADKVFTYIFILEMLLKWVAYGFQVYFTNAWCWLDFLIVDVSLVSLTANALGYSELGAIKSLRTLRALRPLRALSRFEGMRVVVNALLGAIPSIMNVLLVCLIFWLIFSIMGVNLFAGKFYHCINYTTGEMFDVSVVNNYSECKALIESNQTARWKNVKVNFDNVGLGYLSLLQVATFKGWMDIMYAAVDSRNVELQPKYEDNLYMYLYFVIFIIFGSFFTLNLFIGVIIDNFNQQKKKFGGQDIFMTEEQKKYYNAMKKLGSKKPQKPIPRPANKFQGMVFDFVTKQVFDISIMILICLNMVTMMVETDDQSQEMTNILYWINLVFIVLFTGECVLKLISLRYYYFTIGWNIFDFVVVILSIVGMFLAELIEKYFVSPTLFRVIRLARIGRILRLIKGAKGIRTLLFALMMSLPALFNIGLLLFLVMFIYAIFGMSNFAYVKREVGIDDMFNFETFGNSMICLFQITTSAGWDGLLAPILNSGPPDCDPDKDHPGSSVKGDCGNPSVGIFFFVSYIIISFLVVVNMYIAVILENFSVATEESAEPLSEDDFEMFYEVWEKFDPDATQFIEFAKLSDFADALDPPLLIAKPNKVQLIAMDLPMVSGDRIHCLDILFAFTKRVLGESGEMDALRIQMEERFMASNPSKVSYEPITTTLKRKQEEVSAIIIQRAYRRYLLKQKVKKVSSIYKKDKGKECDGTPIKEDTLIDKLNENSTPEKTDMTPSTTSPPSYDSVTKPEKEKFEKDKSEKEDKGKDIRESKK

[3] = molecular target: T1, Sodium channel protein type 2 subunit alpha; test: Inhibition of human Nav1.2 expressed in HEK293 cells assessed as effect on steady state activation by measuring half activation potential at 10 uM (reference value: -33 mV); assay type: cell-based
Target sequence in this assay (Q99250 whole entry, looked up): as above

[4] = Drug concentration in male ICR mouse plasma at 20 mg/kg, po measured after 0.5 hrs by LC-MS/MS analysis; assay type: ADME, organism-based
Mus musculus [5] = test: Antiepileptic activity in 6 Hz(32 mA)-induced seizure male C57BL mouse model assessed as protection against seizure at 100 mg/kg, ip administered for 30 mins by epilepsy test; assay type: functional; conditions: 0.5 h
[6] = molecular target: Sodium channel protein type 1 subunit alpha (Homo sapiens) (UniProt P35498); test: Inhibition of human Nav1.1 expressed in HEK293 cells assessed as test to control ratio at 1 uM by whole cell voltage clamp electrophysiological analysis; assay type: cell-based
[7] = Neurotoxicity in male ICR mouse assessed as motor impairment at 25 mg/kg, ip administered for 30 mins by rotarod test relative to control; assay type: toxicity, organism-based; conditions: in vivo, 0.5 h
Mus musculus [8] = test: Antiepileptic activity in MES-induced seizure male ICR mouse model assessed as protection against tonic hind limb extension at 10 mg/kg, ip measured after 30 mins relative to control; assay type: functional; conditions: 0.5 h
[9] = molecular target: T2, Sodium channel protein type 5 subunit alpha (Homo sapiens, UniProt Q14524); test: Inhibition of human Nav1.5 expressed in CHL cells assessed as test to control ratio at 0.1 uM by whole cell voltage clamp electrophysiological analysis; assay type: cell-based
T2 sequence (Q14524 whole entry): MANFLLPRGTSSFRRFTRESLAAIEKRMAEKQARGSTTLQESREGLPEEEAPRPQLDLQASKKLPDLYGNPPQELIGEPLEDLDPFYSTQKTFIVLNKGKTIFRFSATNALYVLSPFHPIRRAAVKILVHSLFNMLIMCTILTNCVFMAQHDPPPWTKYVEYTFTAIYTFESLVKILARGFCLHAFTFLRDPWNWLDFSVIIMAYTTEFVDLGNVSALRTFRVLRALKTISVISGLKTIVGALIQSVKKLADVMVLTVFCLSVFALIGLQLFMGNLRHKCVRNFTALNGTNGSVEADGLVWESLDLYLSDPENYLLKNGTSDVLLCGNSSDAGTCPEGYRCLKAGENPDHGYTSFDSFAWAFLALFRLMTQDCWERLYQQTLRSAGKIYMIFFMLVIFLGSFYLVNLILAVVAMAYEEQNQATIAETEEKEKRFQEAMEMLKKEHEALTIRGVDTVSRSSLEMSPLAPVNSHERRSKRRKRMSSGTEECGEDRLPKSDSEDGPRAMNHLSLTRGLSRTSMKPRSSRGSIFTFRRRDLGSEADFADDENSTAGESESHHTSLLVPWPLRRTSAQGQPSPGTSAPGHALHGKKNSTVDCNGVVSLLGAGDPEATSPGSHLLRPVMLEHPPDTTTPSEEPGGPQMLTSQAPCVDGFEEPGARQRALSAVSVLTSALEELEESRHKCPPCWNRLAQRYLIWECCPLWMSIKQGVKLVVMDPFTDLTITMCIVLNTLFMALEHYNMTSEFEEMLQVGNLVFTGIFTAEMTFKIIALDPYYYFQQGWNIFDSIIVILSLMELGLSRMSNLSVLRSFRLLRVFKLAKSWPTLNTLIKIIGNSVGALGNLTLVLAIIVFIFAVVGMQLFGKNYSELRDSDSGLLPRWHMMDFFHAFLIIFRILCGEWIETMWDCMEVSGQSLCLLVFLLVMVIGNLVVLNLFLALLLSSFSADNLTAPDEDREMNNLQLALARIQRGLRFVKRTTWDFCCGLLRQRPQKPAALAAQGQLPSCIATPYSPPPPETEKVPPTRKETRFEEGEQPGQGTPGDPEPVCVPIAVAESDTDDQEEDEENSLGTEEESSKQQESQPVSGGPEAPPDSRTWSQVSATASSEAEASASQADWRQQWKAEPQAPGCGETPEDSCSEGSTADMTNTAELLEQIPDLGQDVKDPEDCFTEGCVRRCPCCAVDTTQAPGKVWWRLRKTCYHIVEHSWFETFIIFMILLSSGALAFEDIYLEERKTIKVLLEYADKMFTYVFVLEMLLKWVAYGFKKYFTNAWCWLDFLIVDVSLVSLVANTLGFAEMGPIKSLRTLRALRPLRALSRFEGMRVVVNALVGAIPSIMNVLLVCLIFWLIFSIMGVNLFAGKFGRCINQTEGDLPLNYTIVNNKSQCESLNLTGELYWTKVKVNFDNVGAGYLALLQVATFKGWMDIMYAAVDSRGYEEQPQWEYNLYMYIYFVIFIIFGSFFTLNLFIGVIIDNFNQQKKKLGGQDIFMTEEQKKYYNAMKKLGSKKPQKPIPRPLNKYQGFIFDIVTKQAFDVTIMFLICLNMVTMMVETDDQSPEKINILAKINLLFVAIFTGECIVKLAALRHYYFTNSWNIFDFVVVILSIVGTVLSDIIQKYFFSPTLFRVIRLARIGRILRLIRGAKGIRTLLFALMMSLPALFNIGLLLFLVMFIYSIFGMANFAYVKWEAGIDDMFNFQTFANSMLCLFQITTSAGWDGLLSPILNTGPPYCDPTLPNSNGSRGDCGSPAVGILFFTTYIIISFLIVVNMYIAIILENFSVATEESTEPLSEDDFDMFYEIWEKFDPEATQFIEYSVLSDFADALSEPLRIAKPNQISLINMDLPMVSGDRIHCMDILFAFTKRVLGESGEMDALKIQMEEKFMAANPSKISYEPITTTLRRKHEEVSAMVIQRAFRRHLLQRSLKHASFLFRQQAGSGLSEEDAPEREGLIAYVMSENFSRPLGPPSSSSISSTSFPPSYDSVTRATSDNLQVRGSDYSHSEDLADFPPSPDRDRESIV

[10] = molecular target: T1, Sodium channel protein type 2 subunit alpha; test: Inhibition of human Nav1.2 expressed in HEK293 cells at -40 mv holding potential measured after 5 mins by whole cell voltage clamp electrophysiological analysis; assay type: cell-based
Target sequence in this assay (Q99250 whole entry): as the sequence (Q99250 whole entry, looked up) above

[11] = Drug concentration in male ICR mouse brain at 10 mg/kg, ip measured after 0.5 hrs by LC-MS/MS analysis; assay type: ADME, organism-based; conditions: read-out: Ct
Mus musculus [12] = test: Antiepileptic activity in MES-induced seizure male ICR mouse model assessed as protection against tonic hind limb extension at 5 mg/kg, ip measured after 30 mins relative to control; assay type: functional; conditions: 0.5 h
[13] = Ratio of drug concentration in male ICR mouse brain to plasma at 10 mg/kg, ip measured after 0.5 hrs by LC-MS/MS analysis; assay type: ADME, organism-based; conditions: read-out: BPR
[14] = MRT (0 to infinity) in male ICR mouse at 10 mg/kg, ip measured after 24 hrs by LC-MS/MS analysis; assay type: ADME, organism-based; conditions: in vivo
[15] = Drug concentration in male ICR mouse cerebrospinal fluid at 10 mg/kg, ip measured after 0.25 hrs by LC-MS/MS analysis; assay type: ADME, organism-based; conditions: read-out: Ct
[16] = Ratio of drug concentration in male ICR mouse brain to plasma at 20 mg/kg, po measured after 0.5 hrs by LC-MS/MS analysis; assay type: ADME, organism-based; conditions: read-out: BPR
[17] = Tmax in male ICR mouse at 1 mg/kg, iv measured after 24 hrs by LC-MS/MS analysis; assay type: ADME, organism-based; conditions: in vivo
[18] = Drug concentration in male ICR mouse plasma at 20 mg/kg, po measured after 0.25 hrs by LC-MS/MS analysis; assay type: ADME, organism-based
[19] = Clearance in male ICR mouse at 1 mg/kg, iv measured after 24 hrs by LC-MS/MS analysis; assay type: ADME, organism-based; conditions: in vivo
[20] = Drug concentration in male ICR mouse plasma at 10 mg/kg, ip measured after 0.5 hrs by LC-MS/MS analysis; assay type: ADME, organism-based
[21] = molecular target: Sodium channel protein type 8 subunit alpha (Homo sapiens) (UniProt Q9UQD0); test: Inhibition of human Nav1.6 expressed in CHO cells assessed as test to control ratio at 0.1 uM by whole cell voltage clamp electrophysiological analysis; assay type: cell-based
[22] = Half-life in male ICR mouse at 1 mg/kg, iv measured after 24 hrs by LC-MS/MS analysis; assay type: ADME, organism-based; conditions: in vivo
[23] = Ratio of drug concentration in male ICR mouse brain to plasma at 20 mg/kg, po measured after 0.25 hrs by LC-MS/MS analysis; assay type: ADME, organism-based; conditions: read-out: BPR
[24] = AUC (0 to infinity) in male ICR mouse at 1 mg/kg, iv measured after 24 hrs by LC-MS/MS analysis; assay type: ADME, organism-based; conditions: in vivo
[25] = MRT (0 to infinity) in male ICR mouse at 20 mg/kg, po measured after 24 hrs by LC-MS/MS analysis; assay type: ADME, organism-based; conditions: in vivo
[26] = molecular target: T1, Sodium channel protein type 2 subunit alpha; test: Inhibition of human Nav1.2 expressed in HEK293 cells assessed as test to control ratio at 0.1 uM measured after 5 mins by whole cell voltage clamp electrophysiological analysis; assay type: cell-based
Target sequence in this assay (Q99250 whole entry, looked up): as above

[27] = molecular target: T1, Sodium channel protein type 2 subunit alpha; test: Inhibition of human Nav1.2 expressed in HEK293 cells assessed as effect on steady state inactivation by measuring half activation potential at 10 uM (reference value: -65 mV); assay type: cell-based
Target sequence in this assay (Q99250 whole entry, looked up): as above

[28] = Cmax in male ICR mouse at 1 mg/kg, iv measured after 24 hrs by LC-MS/MS analysis; assay type: ADME, organism-based; conditions: in vivo
[29] = molecular target: T1, Sodium channel protein type 2 subunit alpha; test: Inhibition of human Nav1.2 expressed in HEK293 cells at 0.1 uM measured after 5 mins by whole cell voltage clamp electrophysiological analysis relative to control; assay type: cell-based
Target sequence in this assay (Q99250 whole entry, looked up): as above

[30] = Neurotoxicity in male ICR mouse assessed as motor impairment at 20 mg/kg, ip administered for 30 mins by rotarod test relative to control; assay type: toxicity, organism-based; conditions: in vivo, 0.5 h
[31] = Oral bioavailability in male ICR mouse at 20 mg/kg measured after 24 hrs by LC-MS/MS analysis; assay type: ADME, organism-based; conditions: in vivo
[32] = AUC (0 to infinity) in male ICR mouse at 10 mg/kg, ip measured after 24 hrs by LC-MS/MS analysis; assay type: ADME, organism-based; conditions: in vivo
[33] = Drug concentration in male ICR mouse brain at 20 mg/kg, po measured after 0.5 hrs by LC-MS/MS analysis; assay type: ADME, organism-based; conditions: read-out: Ct
[34] = molecular target: T2, Sodium channel protein type 5 subunit alpha; test: Inhibition of human Nav1.5 expressed in CHL cells assessed as test to control ratio at 1 uM by whole cell voltage clamp electrophysiological analysis; assay type: cell-based
[35] = Drug concentration in male ICR mouse plasma at 10 mg/kg, ip measured after 0.25 hrs by LC-MS/MS analysis; assay type: ADME, organism-based
[36] = Ratio of drug concentration in male ICR mouse brain to plasma at 10 mg/kg, ip measured after 0.25 hrs by LC-MS/MS analysis; assay type: ADME, organism-based; conditions: read-out: BPR
[37] = AUC (0 to infinity) in male ICR mouse at 20 mg/kg, po measured after 24 hrs by LC-MS/MS analysis; assay type: ADME, organism-based; conditions: in vivo
Mus musculus [38] = test: Antiepileptic activity in 6 Hz(32 mA)-induced seizure male C57BL mouse model assessed as reduction in seizure time at 100 mg/kg, ip administered for 30 mins by epilepsy test (reference value: 22.7 +/- 1.6 sec); assay type: functional; conditions: 0.5 h
[39] = Cmax in male ICR mouse at 10 mg/kg, ip measured after 24 hrs by LC-MS/MS analysis; assay type: ADME, organism-based; conditions: in vivo
[40] = Half-life in male ICR mouse at 10 mg/kg, ip measured after 24 hrs by LC-MS/MS analysis; assay type: ADME, organism-based; conditions: in vivo

For `COc1cccc(-c2cc(N3CCCc4ccccc4C3)nc(N)n2)c1`, the Activity [1] was 88%, the T/C [2] was 0.02 and the V1/2 [3] was -31 mV. The concentration at 0.5 h [4] was 18.3 ng/mL, the Activity (Mus musculus [5]) was 25% and the T/C [6] was 0.03. For the same molecule, the Activity [7] was 18%, the Activity (Mus musculus [8]) was 88% and the T/C [9] was 0.87. For the same molecule, the IC50 [10] was 120 nM, the concentration at 0.5 h [11] was 800 ng/g and the Activity (Mus musculus [12]) was 80%. It also gave a Kp at 0.5 h [13] of 3.6, an MRT inf [14] of 51 min and a concentration at 0.25 h [15] of 11.7 ng/g. The Kp at 0.5 h [16] was 3.2, the Tmax [17] was 3 min and the concentration at 0.25 h [18] was 166 ng/mL. It also gave a clearance [19] of 92.1 mL/min/kg, a concentration at 0.5 h [20] of 221 ng/mL and a T/C [21] of 0.53. It also gave a half-life [22] of 31.2 min, a Kp at 0.25 h [23] of 3.9 and an AUC(0-inf) [24] of 184 ng·h/mL. The MRT inf [25] was 130 min, the T/C [26] was 0.6 and the V1/2 [27] was -77 mV. For the same molecule, the Cmax [28] was 389 ng/mL, the inhibition [29] was 40% and the Activity [30] was 13%. It also gave a bioavailability [31] of 3%, an AUC(0-inf) [32] of 793 ng·h/mL and a concentration at 0.5 h [33] of 59.3 ng/g. For the same molecule, the T/C [34] was 0.06, the concentration at 0.25 h [35] was 620 ng/mL and the Kp at 0.25 h [36] was 3.1. The AUC(0-inf) [37] was 118 ng·h/mL, the Time (Mus musculus [38]) was 12.9 s and the Cmax [39] was 956 ng/mL. The half-life [40] was 56.4 min.
